Test results reported in ChEMBL document CHEMBL3351946, “Design and synthesis of potent antitumor water-soluble phenyl N-mustard-benzenealkylamide conjugates via a bioisostere approach” (Eur J Med Chem, 2014).
Active and inactive are the calls of the source. No cut-off for these calls is given here.

Assays:
[1] = Cell cycle arrest in human HCT116 cells assessed as accumulation at S phase at 2 uM after 72 hrs by FACS flow cytometric analysis (reference value: 7.49 +/- 0.95%); type: functional, cell-based; details: HCT-116
[2] = Cell cycle arrest in human HCT116 cells assessed as accumulation at G2/M phase after 24 hrs by FACS flow cytometric analysis; type: functional, cell-based; details: HCT-116
PC-3 = assay: Antitumor activity against human PC3 cells xenografted in nude mouse assessed as survival at 50 mg/kg,iv administered every 2 days for 5 doses; type: functional, organism-based; set-up: dose 50 mg/kg
[3] = Cell cycle arrest in human HCT116 cells assessed as accumulation at G2/M phase at 2 uM after 24 hrs by FACS flow cytometric analysis (reference value: 31.55 +/- 4.63%); type: functional, cell-based; details: HCT-116
[4] = Cytotoxicity against human H1299 cells assessed as growth inhibition after 72 hrs by Alamar Blue assay; type: functional, cell-based; details: NCI-H1299, 72 h
[5] = Cell cycle arrest in human HCT116 cells assessed as accumulation at G1 phase at 4 uM after 72 hrs by FACS flow cytometric analysis (reference value: 76.29 +/- 2.65%); type: functional, cell-based; details: HCT-116
[6] = Cell cycle arrest in human HCT116 cells assessed as accumulation at G1 phase at 2 uM after 48 hrs by FACS flow cytometric analysis (reference value: 62.16 +/- 5.94%); type: functional, cell-based; details: HCT-116
Mus musculus [7] = assay: Toxicity in CD-1 (ICR) mouse assessed as decrease in food consumption at 75 to 105 mg/kg, iv measured on day 8; type: organism-based; set-up: dose 75-105 mg/kg, route intravenous; details: in vivo
Mus musculus [8] = assay: Toxicity in iv dosed CD-1 (ICR) mouse assessed as swelling of mouth measured for 14 days; type: organism-based; details: in vivo, 336 h
[9] = Cell cycle arrest in human HCT116 cells assessed as accumulation at G1 phase at 1 uM after 72 hrs by FACS flow cytometric analysis (reference value: 76.29 +/- 2.65%); type: functional, cell-based; details: HCT-116
[10] = Antitumor activity against human HCT116 cells xenografted in nude mouse assessed as tumor growth inhibition at 30 mg/kg,iv qd administered for 6 days measured on day 15 relative to control; type: functional, HCT-116
[11] = Cell cycle arrest in human HCT116 cells assessed as accumulation at S phase at 1 uM after 72 hrs by FACS flow cytometric analysis (reference value: 7.49 +/- 0.95%); type: functional, cell-based; details: HCT-116
[12] = Terminal half life in Sprague-Dawley rat at 50 mg/kg, po; type: ADME, organism-based; set-up: dose 50 mg/kg, route oral; details: in vivo, read-out: beta t1/2 (converted)
[13] = Cell cycle arrest in human HCT116 cells assessed as accumulation at S phase at 4 uM after 72 hrs by FACS flow cytometric analysis (reference value: 7.49 +/- 0.95%); type: functional, cell-based; details: HCT-116
Mus musculus [14] = assay: Toxicity in iv dosed CD-1 (ICR) mouse assessed as swelling of cheek measured for 14 days; type: organism-based; details: in vivo, 336 h
[15] = Cell cycle arrest in human HCT116 cells assessed as accumulation at G2/M phase at 4 uM after 24 hrs by FACS flow cytometric analysis (reference value: 31.55 +/- 4.63%); type: functional, cell-based; details: HCT-116
[16] = Terminal half life in Sprague-Dawley rat at 5 mg/kg, iv; type: ADME, organism-based; set-up: dose 5 mg/kg, route intravenous; details: in vivo, read-out: beta t1/2 (converted)
[17] = Cytotoxicity against human H460 cells assessed as growth inhibition after 72 hrs by Alamar Blue assay; type: functional, cell-based; details: NCI-H460, 72 h
Mus musculus [18] = assay: Toxicity in nude mouse xenografted with human HCT116 cells assessed as body weight loss at 30 mg/kg,iv qd administered for 6 days measured on day 13 relative to control; type: organism-based, HCT-116; set-up: dose 30 mg/kg; details: in vivo, 144 h
[19] = Cell cycle arrest in human HCT116 cells assessed as accumulation at G2/M phase at 1 uM after 48 hrs by FACS flow cytometric analysis (reference value: 23.95 +/- 1.87%); type: functional, cell-based; details: HCT-116
[20] = Cell cycle arrest in human HCT116 cells assessed as accumulation at G1 phase at 2 uM after 72 hrs by FACS flow cytometric analysis (reference value: 76.29 +/- 2.65%); type: functional, cell-based; details: HCT-116
Mus musculus [21] = assay: Induction of apoptosis in HCT116 cells xenografted in nude mouse at 30 mg/kg, iv qd administered for 6 days measured 24 hrs post last dose by hematoxylin and eosin staining; type: functional, organism-based; set-up: dose 30 mg/kg; details: HCT-116
Mus musculus [22] = assay: Toxicity in nude mouse xenografted with human PC3 cells assessed as body weight loss at 30 mg/kg,iv qd administered for 6 days measured on day 13 relative to control; type: organism-based, PC-3; set-up: dose 30 mg/kg; details: in vivo, 144 h
Mus musculus [23] = assay: Toxicity in nude mouse xenografted with human PC3 cells assessed as body weight loss at 40 mg/kg,iv administered every 2 days for 5 doses measured on day 16 relative to control; type: organism-based, PC-3; set-up: dose 40 mg/kg; details: in vivo, 48 h

CCN(CC)CC(=O)Nc1ccc(NC(=O)Nc2ccc(N(CCCl)CCCl)cc2)cc1
Activity [1]: 12.1% | Activity [2]: Dose-dependent effect | Activity (PC-3): Active | Activity [3]: 64.3% | IC50 [4]: 3.43 µM | Activity [5]: 18.1% | Activity [6]: 49.5% | Activity (Mus musculus [7]): Toxic | Activity (Mus musculus [8]): Dose-dependent effect | Activity [9]: 54.9% | %max [10]: 91% | Activity [11]: 11.7% | half-life [12]: 60.6 min | Activity [13]: 19.8% | Activity (Mus musculus [14]): Dose-dependent effect | Activity [15]: 56.3% | half-life [16]: 21.6 min | IC50 [17]: 0.93 µM | body weight change relative to control (Mus musculus [18]): -5% | Activity [19]: 28.2% | Activity [20]: 38.7% | Activity (Mus musculus [21]): Active | %max (Mus musculus [22]): -15% | %max (Mus musculus [23]): -15%
